{"source": "patent US9468638B2", "about": "“Itraconazole formulations” (Texas Southern University, priority 2010, dated 2016)", "origin": "cited, not measured here", "key": {"[1]": {"conditions": "pH=8.1"}, "[2]": {"test": "not given", "remark": "listed apart in the source"}, "[3]": {"conditions": "human, in vivo, iv"}, "[4]": {"conditions": "rat, in vivo"}, "[5]": {"conditions": "in vivo, iv"}}, "note": "Read-outs that look alike come from different tables or passages of the source.", "data": [{"molecule": "CCC(C)n1ncn(-c2ccc(N3CCN(c4ccc(OCC5COC(Cn6cncn6)(c6ccc(Cl)cc6Cl)O5)cc4)CC3)cc2)c1=O", "note": "(centres unmarked) [Itraconazole]", "values": [{"measurement": "n-octanol/water partition coefficient log Po/w", "setting": "[1]", "value": 5.66}, {"measurement": "solubility in PEG 400", "setting": "PEG 400", "value": 2140, "unit": "µg/mL"}, {"measurement": "solubility in Tween 20", "setting": "Tween 20", "value": 1190, "unit": "µg/mL"}, {"measurement": "water solubility", "setting": "[2]; neutral pH", "value": "about 1 ng/mL"}, {"measurement": "water solubility", "setting": "[2]; pH=1", "value": "approximately 4 mcg/mL"}]}, {"molecule": "hydroxylpropyl-β-cyclodextrin", "values": [{"measurement": "reduced clearance of hydroxylpropyl-β-cyclodextrin", "setting": "[3]", "value": 6, "unit": "fold"}, {"measurement": "carcinogenicity finding", "setting": "[4]", "value": "produced pancreatic adenocarcinomas"}, {"measurement": "toxicity that led to discontinuation of Sporanox I.V. Injection", "setting": "[5]", "value": "renal toxicity"}]}]}
